From the supplement of paper PMC10307832

Key:
Experiment in all cases: relative viability (nuclei count vs DMSO), 5 days (fraction); higher = more cells survive
KIN001-266 + Pemetrexed = compound: CCN1CCC(CC1)N2C=C(N=N2)CNC3=CC4=C(C(=CN=C4C(=C3)Cl)C#N)NC5=CC(=C(C=C5)F)Cl [KIN001-266] + Nc1nc2[nH]cc(CCc3ccc(C(=O)N[C@@H](CCC(=O)O)C(=O)O)cc3)c2c(=O)[nH]1 [Pemetrexed] (partner 0.2 µM)
How it was run: (§1)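 Relative viability is defined as nuclei in treated wells over nuclei in vehicle wells. Duplicate plates were run and medians reported. Lung cancer cell lines in 1536-well plates were dosed by pin tool one day after seeding, with one drug or with a fixed anchor-drug dose plus five library-drug doses (not always all listed) in √10 steps, and nuclei were counted after 5 days.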

KIN001-266 + Trametinib = compound: CCN1CCC(CC1)N2C=C(N=N2)CNC3=CC4=C(C(=CN=C4C(=C3)Cl)C#N)NC5=CC(=C(C=C5)F)Cl [KIN001-266] + CC(=O)Nc1cccc(-n2c(=O)n(C3CC3)c(=O)c3c(Nc4ccc(I)cc4F)n(C)c(=O)c(C)c32)c1 [Trametinib] (partner 0.02 µM)
How it was run: as §1

KIN001-266 + Navitoclax = compound: CCN1CCC(CC1)N2C=C(N=N2)CNC3=CC4=C(C(=CN=C4C(=C3)Cl)C#N)NC5=CC(=C(C=C5)F)Cl [KIN001-266] + CC1(C)CCC(c2ccc(Cl)cc2)=C(CN2CCN(c3ccc(C(=O)NS(=O)(=O)c4ccc(N[C@H](CCN5CCOCC5)CSc5ccccc5)c(S(=O)(=O)C(F)(F)F)c4)cc3)CC2)C1 [Navitoclax] (partner 0.5 µM)
How it was run: as §1

KIN001-266 + Phenformin = compound: CCN1CCC(CC1)N2C=C(N=N2)CNC3=CC4=C(C(=CN=C4C(=C3)Cl)C#N)NC5=CC(=C(C=C5)F)Cl [KIN001-266] + N=C(N)NC(=N)NCCc1ccccc1 [Phenformin] (partner 250 µM)
How it was run: as §1

Cell Line	relative viability (KIN001-266 + Pemetrexed; first compound 0.08 µM)	relative viability (KIN001-266 + Pemetrexed; first compound 0.253 µM)	relative viability (KIN001-266 + Pemetrexed; first compound 0.8 µM)	relative viability (KIN001-266 + Pemetrexed; first compound 2.53 µM)	relative viability (KIN001-266 + Pemetrexed; first compound 8 µM)	relative viability (KIN001-266 + Trametinib; first compound 0.08 µM)	relative viability (KIN001-266 + Trametinib; first compound 0.253 µM)	relative viability (KIN001-266 + Trametinib; first compound 0.8 µM)	relative viability (KIN001-266 + Trametinib; first compound 2.53 µM)	relative viability (KIN001-266 + Trametinib; first compound 8 µM)	relative viability (KIN001-266 + Navitoclax; first compound 0.08 µM)	relative viability (KIN001-266 + Navitoclax; first compound 0.253 µM)	relative viability (KIN001-266 + Navitoclax; first compound 0.8 µM)	relative viability (KIN001-266 + Navitoclax; first compound 2.53 µM)	relative viability (KIN001-266 + Navitoclax; first compound 8 µM)	relative viability (KIN001-266 + Phenformin; first compound 0.08 µM)	relative viability (KIN001-266 + Phenformin; first compound 0.253 µM)	relative viability (KIN001-266 + Phenformin; first compound 0.8 µM)	relative viability (KIN001-266 + Phenformin; first compound 2.53 µM)	relative viability (KIN001-266 + Phenformin; first compound 8 µM)
NCI-H1915	0.507	0.466	0.504	0.469	0.575	0.312	0.302	0.298	0.293	0.223	0.766	0.79	0.74	0.758	0.742	0.365	0.379	0.354	0.379	0.36
RERF-LC-KJ	0.475	0.507	0.475	0.499	0.467	0.945	0.849	0.823	0.778	0.556	0.989	0.81	0.937	0.849	0.651	0.436	0.354	0.415	0.355	0.345
LOU-NH91	0.369	0.392	0.385	0.378	0.425	0.83	0.753	0.698	0.727	0.748	0.761	0.646	0.47	0.609	0.55	0.716	0.737	0.489	0.637	0.552
NCI-H2347	0.455	0.463	0.43	0.452	0.433	0.304	0.323	0.282	0.278	0.22	0.869	0.747	0.787	0.834	0.453	0.405	0.428	0.435	0.519	0.24
NCI-H2126	0.713	0.73	0.758	0.687	0.619	0.583	0.554	0.621	0.568	0.518	0.844	0.86	0.863	0.813	0.855	0.535	0.519	0.546	0.555	0.5
HCC-827	0.264	0.259	0.166	0.214	0.23	0.489	0.577	0.468	0.545	0.49	1.02	1.08		0.971	0.981	0.439	0.404	0.189	0.318	0.286
NCI-H3122	0.206	0.2	0.198	0.197	0.214	0.234	0.218	0.223	0.232	0.292	0.968	1.09	1.01	0.998	0.769	0.349	0.367	0.325	0.274	0.307
HOP-62	0.313	0.304	0.469	0.353	0.381	0.391	0.387	0.379	0.311	0.293	1.11	1.02	1.06	1.05	0.95	0.683	0.694	0.688	0.734	0.629
HCC-44	0.678	0.651	0.607	0.592	0.642	1.13	1.06	1.07	1.07	1.16	1.03	1.08	0.946	1.06	1.03	0.229	0.185	0.197	0.26	0.3
